Measurements: the NIST ThermoML archive (doi:10.1016/j.jct.2007.11.006)
Numbers after ± are expanded uncertainties.

Legend:
[1] = Crystal
[2] = Molar enthalpy of transition or fusion; details: Crystal; DSC
[3] = molar enthalpy of vaporization or sublimation; details: 298.15 K; Crystal; Drop sublimation at initial T = 411 K and adjusted to 298.15 K

- mass density ([1]; 298.1 K, 101.33 kPa, mass of pellet and dimensions): 1080 ± 10 kg/m3
- Normal melting temperature ([1]; DTA): 147.02 ± 0.43 °C
- Molar enthalpy of transition or fusion [2]: 7.63 ± 0.645 kcal/mol
- molar enthalpy [3]: 29.9 ± 1.48 kcal/mol
Structure (SMILES): COc1cc(O)cc(OC)c1OC [3,4,5-trimethoxyphenol]
